Reference: patent EP1368050B1, “VIRUS DERIVED ANTIMICROBIAL PEPTIDES” (priority 2001, dated 2008)
Residues, ends and D or L forms follow the SMILES beside them.

How the values were obtained:
[1] = tested on: Ca^2+-saturated calmodulin; details: host cell Ca^2+-saturated calmodulin; cited from earlier work
Pseudomonas aeruginosa = details: 1x10^5 colony-forming units; cited from earlier work
Staphylococcus aureus = details: 1x10^5 colony-forming units; cited from earlier work
[2] = tested on: differentiated primary human airway epithelial cells; assay: Co-culture model: epithelial cell toxicity by transepithelial resistance; format: cell-based; details: at a decrease in bacterial counts by two orders of magnitude, Figure 9
From the text: The antimicrobial peptides of the invention display selective toxicity to target microorganisms and minimal toxicity to mammalian cells. Determining the toxicity of the peptides claimed in this invention on mammalian cells is preferably performed using tissue culture assays. For mammalian cells, such assay methods include, inter alia, trypan blue exclusion and MTT assays (see Moore et al., 1994, Peptide Research 7:265-269). […] In addition, the disruption of the transepithelial resistance (Rte) of a cell monolayer that have formed tight junctions can be monitored. […]
Preparation of eukaryotic cells. […] In order to release viable bacteria, trypsin/EDTA was added and these preparations were plated on standard bacteriologic media to quantify bacterial survival. Similarly prepared cells were monitored for peptide toxicity by measuring transepithelial resistance. […]
Based on above in vitro findings, WLSA-5 (SEQ ID NO:3) was tested in a scenario that more accurately assessed its selective toxicity. […] The ability of peptide to kill bacteria is monitored as a function of viable bacteria associated with the epithelial cells after peptide exposure. […]

Row | Compound | affinity for calmodulin [1] | time to nearly sterilize a suspension (Pseudomonas aeruginosa) | time to nearly sterilize a suspension (Staphylococcus aureus) | change in transepithelial resistance [2]
1 | CC[C@H](C)[C@H](NC(=O)[C@H](C)NC(=O)[C@H](CCCNC(=N)N)NC(=O)[C@H](CS)NC(=O)[C@H](C)NC(=O)CNC(=O)[C@H](CCC(N)=O)NC(=O)[C@@H](NC(=O)[C@@H](NC(=O)[C@H](CCC(=O)O)NC(=O)[C@@H](NC(=O)[C@@H](NC(=O)[C@@H](N)CCCNC(=N)N)C(C)C)[C@@H](C)CC)C(C)C)C(C)C)C(=O)N[C@@H](CCCNC(=N)N)C(=O)N[C@@H](Cc1c[nH]cn1)C(=O)N[C@H](C(=O)N1CCC[C@H]1C(=O)N[C@@H](CCCNC(=N)N)C(=O)N[C@@H](CCCNC(=N)N)C(=O)N[C@H](C(=O)N[C@@H](CCCNC(=N)N)C(=O)N[C@@H](CCC(N)=O)C(=O)NCC(=O)N[C@@H](CC(C)C)C(=O)N[C@@H](CCC(=O)O)C(=O)N[C@@H](CCCNC(=N)N)C(=O)N[C@H](C(=O)N[C@@H](CC(C)C)C(=O)O)[C@@H](C)CC)[C@@H](C)CC)[C@@H](C)CC [LLP1] (H-RVIEVVQGACRAIRHIPRRIRQGLERIL-OH; N-terminus and C-terminus assumed) | near nanomolar affinity | ≤ 60 s | ≤ 60 s | 
2 | CC[C@H](C)[C@H](NC(=O)[C@H](C)NC(=O)[C@H](CCCNC(=N)N)NC(=O)[C@H](CS)NC(=O)[C@H](Cc1c[nH]c2ccccc12)NC(=O)[C@H](CCCNC(=N)N)NC(=O)[C@H](CCC(N)=O)NC(=O)[C@@H](NC(=O)[C@@H](NC(=O)[C@H](CCCNC(=N)N)NC(=O)[C@@H](NC(=O)[C@H](Cc1c[nH]c2ccccc12)NC(=O)[C@@H](N)CCCNC(=N)N)[C@@H](C)CC)C(C)C)C(C)C)C(=O)N[C@@H](CCCNC(=N)N)C(=O)N[C@@H](Cc1c[nH]cn1)C(=O)N[C@H](C(=O)N[C@@H](Cc1c[nH]c2ccccc12)C(=O)N[C@@H](CCCNC(=N)N)C(=O)N[C@@H](CCCNC(=N)N)C(=O)N[C@H](C(=O)N[C@@H](CCCNC(=N)N)C(=O)N[C@@H](CCC(N)=O)C(=O)NCC(=O)N[C@@H](CC(C)C)C(=O)N[C@@H](CCCNC(=N)N)C(=O)N[C@@H](CCCNC(=N)N)C(=O)N[C@@H](Cc1c[nH]c2ccccc12)C(=O)N[C@@H](CC(C)C)C(=O)N[C@@H](CCCNC(=N)N)C(=O)N[C@H](C(=O)N[C@H](C(=O)O)C(C)C)C(C)C)[C@@H](C)CC)[C@@H](C)CC [WLSA-5] (H-RWIRVVQRWCRAIRHIWRRIRQGLRRWLRVV-OH) |  |  |  | less than 50%
